Source: publication PMC6015222, “Targeting Phosphopeptide Recognition by the Human BRCA1 Tandem BRCT Domain to Interrupt BRCA1-Dependent Signaling” (Cell Chemical Biology, 2018)

Assays:
[1] = system: RPA32 foci; test: Radiation-induced nuclear RPA32 foci; format: cell-based, human; details: 100 μM, 16 Gy, as Figure 5A
Procedure: HEK293 cells stably harboring plasmids for Tet-inducible expression of tBRCT domains were seeded at 30,000 cells/well on Matrigel-coated 96-well plates, and treated as indicated. Cells were fixed in 2.5% PFA, for 20’ at RT and incubated in 1x PBS with 10% FBS plus 0.5% TritonX-100 for 1 h for blocking and permeabilization. Primary antibody staining was performed at the indicated dilutions in PBST-BSA buffer (0.7mg/ml BSA, 0.05% Tween-20 in 1XPBS) for 1h at RT. Cells were then extensively washed in PBST-BSA buffer and stained with goat-anti-mouse Alexa 488 secondary antibody (Invitrogen), at 1:1000 dilution along with 2.5μg/ml DAPI for nuclear staining. […] Images were acquired on a high-content imaging platform (Cellomics ArrayScan VTI HCS Reader (Thermo Fisher Scientific)) using a 40x objective. On average ∼800 fields from 6-well replicates, containing a total of ∼10-20K cells were imaged per treatment group and quantified using image analysis software (in-house algorithms using MatLab and commercially available HCS studio 2.0 from Thermo Fisher Scientific). […] Cut-off values for foci number per cell specifying the maximal difference between control and irradiated samples were determined to calculate the percentage of cells positive for radiation-induced foci. […]

[2] = target: T1, BRCA1 tBRCT / BACH1 unimolecular FRET biosensor (Homo sapiens, UniProt P38398); test: Unimolecular FRET biosensor assay in HEK293 cells (sensitized emission, acceptor photobleaching); format: cell-based; details: 100 μM, 24 hr, 16 Gy
T1 construct: the BRCA1 tBRCT domain (aa 1643-1862); expressed in transfected cells
Procedure: HEK293 cells expressing the stably integrated FRET sensor in a tetracycline-inducible system were used. 3.5x10^5 cells/35mm dish were seeded in Matrigel coated plates and expression was induced using doxycycline (1μg/ml) for 48 h. Cells were incubated with compounds for 24 h in serum containing media at 100μM final concentration with 0.5% DMSO. Where indicated, mCherry-BRCA1 tBRCT constructs were transiently transfected in a 4.5:1 ratio of Fugene:DNA and incubated in serum-containing media for 24 h (Fugene HD transfection reagent, Promega). Two h after 16 Gy IR, cells were washed in 1x PBS (pH 7.4) and fixed in 4% PFA at room temperature (RT) for 10’. Cells were mounted with Mowiol (without anti-fade) before imaging. The following excitation and emission wavelengths were used: Ex 402nm / Em 457nm for Tag-BFP; Ex 483nm / Em 506nm for Tag-GFP2 and Ex 594nm / Em 610nm for mCherry. […] Images acquired as noted below were quantified using HCS studio 2.0 (Thermo Fisher Scientific) to define nuclear morphology and average nuclear intensities.
For sensitized emission FRET measurements, images were acquired using a Zeiss epifluorescence microscope with Apotome using a 40x oil objective. […] Corrections for the extent of spectral cross-talk were calculated and applied as follows ([Müller et al., 2013]). […]

T1 sequence (P38398 1643-1862): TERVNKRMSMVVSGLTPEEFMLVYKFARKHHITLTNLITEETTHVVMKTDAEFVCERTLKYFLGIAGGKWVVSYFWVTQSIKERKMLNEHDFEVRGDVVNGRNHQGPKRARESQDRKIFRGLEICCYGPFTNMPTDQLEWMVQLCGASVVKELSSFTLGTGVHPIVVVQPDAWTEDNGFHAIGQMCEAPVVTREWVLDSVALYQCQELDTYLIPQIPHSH

## O=C(c1ccc2nc(-c3ccccc3)[nH]c2c1)N1CCN(Cc2ccccc2F)CC1 [Bractoppin, (4-(2-fluorobenzyl)piperazin-1-yl) (2-phenyl-1H-benzo[d]imidazol-6-yl) methanone]
[1]
  effect on RPA32 accumulation: little effect
[2]
  effect on FRET efficiency of the biosensor: inhibits FRET
